Article PMC4350845, “Polyphosphatase PPN1 of Saccharomyces cerevisiae: Switching of Exopolyphosphatase and Endopolyphosphatase Activities” (PLoS ONE, 2015)

Target: T1, polyphosphatase PPN1 (Saccharomyces cerevisiae, UniProt Q04119)
T1 construct: recombinant, overexpressed in S. cerevisiae CRN/pMB1_PPN1 Sc and purified; proteolytically matured form of ~33 kDa on SDS-PAGE (precursor predicted 78 kDa); no tag mentioned
T1 sequence (Q04119 84-384): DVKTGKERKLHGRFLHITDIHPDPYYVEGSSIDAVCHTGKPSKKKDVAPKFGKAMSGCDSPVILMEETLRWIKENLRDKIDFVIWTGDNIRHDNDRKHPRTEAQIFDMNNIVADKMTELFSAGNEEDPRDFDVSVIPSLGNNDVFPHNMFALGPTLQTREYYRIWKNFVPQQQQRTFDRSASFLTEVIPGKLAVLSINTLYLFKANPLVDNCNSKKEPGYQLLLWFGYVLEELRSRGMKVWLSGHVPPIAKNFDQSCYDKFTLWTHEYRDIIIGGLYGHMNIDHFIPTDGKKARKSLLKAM
Test: inhibition of exopolyphosphatase activity (Pi release from PolyP208)
Format: biochemical
Conditions: inhibitor; PolyP208 2.5 mM as Pi, 0.1 mM CoSO4, 200 mM NH4Cl, pH 7.2, 30 C

% of control activity at 2.0 mM	Structure (SMILES)
PPi and PolyP3 inhibited Pi release	O=P(O)(O)OP(=O)(O)O [PPi]
PPi and PolyP3 inhibited Pi release	O=P(O)(O)OP(=O)(O)OP(=O)(O)O [PolyP3]
